Experimental data taken from patent publication US6436660B1, “Identification of novel antimicrobial agents using metabolic oxidation-reduction indicator dyes” (XOMA Technology Ltd., priority 1999, dated 2002).

Key:
Candida albicans = experiment: Effect of antifungal compounds on fungal cells with Alamar Blue (fluorimetric metabolic oxidation-reduction indicator dye assay); type: cell-based; settings: for characteristic pattern or "fingerprint": increased metabolic oxidation-reduction activity (Alamar Blue fluorescence) relative to untreated control cells: Candida albicans 1x10^7 cells/mL, test compound two-fold dilutions from 64 μg/mL, 37° C., readings 0-60 min, best seen at 15 min (FIG. 2); for characteristic "fingerprint" with metabolic oxidation-reduction indicator dye (statement on negative controls): for fungal cells, summary statement
Text: Alamar Blue™ is an indicator dye formulated to measure quantitatively the proliferation of a variety of human or animal cells, bacteria, or fungi. It consists of an oxidation-reduction (REDOX) indicator that yields colorimetric and fluorimetric changes in response to metabolic activity (electron transport activity).
The relative effect of two BPI-derived peptides, XMP.391 (SEQ ID NO: 4) and XMP.445 (SEQ ID NO: 6), and the antifungal compound amphotericin B on fungal cells with the metabolic oxidation-reduction indicator dye Alamar Blue™ [AccuMed Int'l, Westlake, Ohio] was assessed as follows.
Candida albicans were grown in 75 mL Sabouraud's dextrose broth (SDB) for 5 hours at 30° C. Cells were pelleted by centrifiguation for 5 minutes in a Sorvall RT6000B centrifuge at 3,000 rpm (1500×g) and resuspended in 15 mL of fresh SDB. A 1:10 dilution of this suspension was used for an OD570 nm detennination. One OD unit is equivalent to 1×10^7 CFU/mL. Cells were adjusted to a concentration of 2×10^7 CFU/mL.
Test compounds XMP.391, XMP.445 and Amphotericin B (AMB) were two-fold serially diluted in SDB from a concentration of 128 μg/mL in a 96-well plate. This was done in triplicate with each well containing a volume of 100 μL. An equal volume of the yeast suspension was added to each well.
Alamar Blue™ was added at 20 μL per well and the initial (t=0) fluorescence readings were performed in a Molecular Devices SpectraMax Gemini plate reader. The excitation wavelength was 544 nm and the emission wavelength was measured at 590 nm. The plate was incubated at 37° C. and additional readings at 15, 30, 45 and 60 minutes were performed. Metabolic oxidation-reduction activity is detected by an increase in fluorescence emission.

[1] = background statement on narrow therapeutic window; cited from earlier work
bacterial growth = settings: background statement on narrow therapeutic window; cited from earlier work
[2] = test system: E. coli (ATCC strain 8739); experiment: Effect of antibacterial compounds on bacteria with Alamar Blue (colorimetric OD595 assay); type: cell-based; settings: for bacteria; summary statement
Procedure: E. coli (ATCC strain 8739) was incubated at 37° C. in 5 mL cation-adjusted Mueller Hinton Broth (CAMHB) for 3 hours to attain log phase growth. The bacteria were pelleted in a Sorvall RT6000B centrifuge for 5 minutes at 3,000 rpm (1.500×g ) and resuspended in 5 mL of fresh CAMHB. A 1:10 dilution was performed for an OD570 nm determination. One OD unit equals 1.25×10^9 CFU/mL. The bacterial suspension was adjusted to 1×10^8 CFU/mL.
This was done in triplicate with each well containing a volume of 100 μL. An equal volume of the bacterial suspension was added to each well. […] Alamar Blue™ was added at 20 μL per well. The “Blank” contained media and Alamar Blue™ only, without cells.
OD595 nm readings were performed in a Molecular Devices plate reader. This required that samples be centrifuged to pellet bacteria and related debris which would contribute to the OD595 nm reading. 150 μL were removed from the wells at various timepoints, centrifuged (2 minutes, 2,000 rpm) and 50 μL of supernatant was carefully transferred to a fresh 96-well plate for the reading. Timepoints were read at 0, 30, 60, 90 and 120 minutes. Metabolic oxidation-reduction activity is detected by an increase in OD in this colorimetric assay.

Compound	characteristic pattern or "fingerprint": increased metabolic oxidation-reduction activity (Alamar Blue fluorescence) relative to untreated control cells (Candida albicans)	characteristic "fingerprint" with metabolic oxidation-reduction indicator dye (statement on negative controls) (Candida albicans)	also measured
C[C@@H]1[C@H](O)[C@@H](C)/C=C/C=C/C=C/C=C/C=C/C=C/C=C/[C@H](O[C@@H]2O[C@H](C)[C@@H](O)[C@H](N)[C@@H]2O)C[C@@H]2O[C@](O)(C[C@@H](O)C[C@@H](O)[C@H](O)CC[C@@H](O)C[C@@H](O)CC(=O)O[C@H]1C)C[C@H](O)[C@H]2C(=O)O [amphotericin B]	did not show the “fingerprint.”	do not exhibit the characteristic “fingerprint,”	–
OC(Cn1cncn1)(Cn1cncn1)c1ccc(F)cc1F [fluconazole]	–	do not exhibit the characteristic “fingerprint,”	–
XMP.391: BPI-derived peptide, domain III-derived, SEQ ID NO: 4; structure described in Table 1 of U.S. Pat. No. 5,858,974 (KVGWLIQLFHKK)	known to produce this characteristic pattern	–	–
antimycin	–	do not exhibit the characteristic “fingerprint,”	–
gentamicin	–	–	concentration that produces a toxic effect [1]: 12000 ng/mL; concentration required to produce a therapeutic effect (bacterial growth): 8 µg/mL
polymyxin	–	–	characteristic "fingerprint" with metabolic oxidation-reduction indicator dye (statement on negative controls) [2]: do not exhibit the characteristic “fingerprint,”
